According to ChEMBL document CHEMBL1201862, “PubChem BioAssay data set” (2004):
Calls of active or inactive are those of the source.

Columns and labels:
Estrogen receptor beta = Estrogen receptor beta (Homo sapiens, UniProt Q92731); assay: ERβ–SRC-3 coactivator interaction inhibitors, confirmation, orthogonal assay, biochemical, ELISA, streptavidin-HRP readout (AID 1060)
Cytochrome P450 2C9 = Cytochrome P450 2C9 (Homo sapiens, UniProt P11712); settings: Potency
Protein RecA = molecular target: T1, Protein RecA (Mycobacterium tuberculosis, UniProt P9WHJ3); assay: Fluorescence Cell-Free Homogeneous Dose Retest to Identify Inhibitors of RecA-Intein Splicing Activity. [Related pubchem assays (depositor defined):AID2097, AID2223, AID489010, AID492950]; format: functional
T1 sequence (P9WHJ3 whole entry): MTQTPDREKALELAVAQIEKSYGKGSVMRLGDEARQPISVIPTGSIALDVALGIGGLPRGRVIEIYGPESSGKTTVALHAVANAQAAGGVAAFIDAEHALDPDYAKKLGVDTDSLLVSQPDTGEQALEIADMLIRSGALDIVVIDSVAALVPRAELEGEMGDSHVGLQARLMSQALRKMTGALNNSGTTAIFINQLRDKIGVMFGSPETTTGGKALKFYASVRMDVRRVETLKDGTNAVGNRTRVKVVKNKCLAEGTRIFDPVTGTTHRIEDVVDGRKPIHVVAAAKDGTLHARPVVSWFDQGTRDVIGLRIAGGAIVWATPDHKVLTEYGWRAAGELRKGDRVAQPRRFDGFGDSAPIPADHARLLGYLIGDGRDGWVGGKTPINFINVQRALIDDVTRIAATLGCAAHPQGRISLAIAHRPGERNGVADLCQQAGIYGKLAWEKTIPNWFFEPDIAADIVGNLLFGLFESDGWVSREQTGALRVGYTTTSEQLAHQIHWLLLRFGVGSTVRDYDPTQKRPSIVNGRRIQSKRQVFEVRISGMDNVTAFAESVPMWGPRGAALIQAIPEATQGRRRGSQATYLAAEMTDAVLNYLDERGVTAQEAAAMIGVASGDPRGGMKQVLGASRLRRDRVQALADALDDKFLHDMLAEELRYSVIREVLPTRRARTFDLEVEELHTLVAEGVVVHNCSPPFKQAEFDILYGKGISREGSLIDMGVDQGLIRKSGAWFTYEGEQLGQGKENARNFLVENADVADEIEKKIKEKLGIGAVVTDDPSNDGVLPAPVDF

[1] = growth suppression of PTEN-null colon cells, dose response, cell-based, HCT116 PTEN knockout (AID 1047); format: functional;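 note: HCT116 colon tumor cells with PTEN knocked out; cells exposed to compound for 60 hours before readout; potency for loss of cell viability measured by luminescence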
[2] = molecular target: T2, Replicative DNA helicase DnaB (Mycobacterium tuberculosis, UniProt P9WMR3); assay: DnaB intein splicing inhibitors, dose response, biochemical, cell-free fluorescence (AID 449749); format: functional
T2 sequence (P9WMR3 whole entry): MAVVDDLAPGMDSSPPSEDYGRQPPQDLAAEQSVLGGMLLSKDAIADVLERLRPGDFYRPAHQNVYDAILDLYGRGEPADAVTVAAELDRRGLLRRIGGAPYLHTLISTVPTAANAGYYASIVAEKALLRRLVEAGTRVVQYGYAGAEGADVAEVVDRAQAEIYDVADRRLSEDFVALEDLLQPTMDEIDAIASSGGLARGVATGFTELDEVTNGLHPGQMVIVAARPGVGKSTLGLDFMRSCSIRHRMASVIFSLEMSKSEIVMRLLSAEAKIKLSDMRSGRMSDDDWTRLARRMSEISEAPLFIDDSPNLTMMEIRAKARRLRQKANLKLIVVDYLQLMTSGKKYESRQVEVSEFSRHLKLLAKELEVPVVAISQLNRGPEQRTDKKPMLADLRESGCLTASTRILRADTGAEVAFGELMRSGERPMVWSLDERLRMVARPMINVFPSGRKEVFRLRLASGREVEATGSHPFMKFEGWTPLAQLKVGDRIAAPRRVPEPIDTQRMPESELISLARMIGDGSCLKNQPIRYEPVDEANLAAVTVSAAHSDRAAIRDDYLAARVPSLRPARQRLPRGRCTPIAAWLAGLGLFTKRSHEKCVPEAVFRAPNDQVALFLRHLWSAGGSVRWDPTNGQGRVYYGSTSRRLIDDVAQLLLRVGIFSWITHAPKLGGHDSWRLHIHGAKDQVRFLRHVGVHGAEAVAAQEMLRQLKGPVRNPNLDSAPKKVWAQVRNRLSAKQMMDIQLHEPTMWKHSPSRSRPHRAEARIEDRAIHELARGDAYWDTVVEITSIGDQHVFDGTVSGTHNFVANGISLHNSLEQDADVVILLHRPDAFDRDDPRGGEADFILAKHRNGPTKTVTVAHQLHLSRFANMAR

[3] = molecular target: T3, Mannose-6-phosphate isomerase (Homo sapiens, UniProt P34949); assay: human PMI inhibitors, high substrate, primary screen, biochemical, fluorescence intensity, high mannose 6-phosphate (AID 1220)
T3 sequence (P34949 whole entry): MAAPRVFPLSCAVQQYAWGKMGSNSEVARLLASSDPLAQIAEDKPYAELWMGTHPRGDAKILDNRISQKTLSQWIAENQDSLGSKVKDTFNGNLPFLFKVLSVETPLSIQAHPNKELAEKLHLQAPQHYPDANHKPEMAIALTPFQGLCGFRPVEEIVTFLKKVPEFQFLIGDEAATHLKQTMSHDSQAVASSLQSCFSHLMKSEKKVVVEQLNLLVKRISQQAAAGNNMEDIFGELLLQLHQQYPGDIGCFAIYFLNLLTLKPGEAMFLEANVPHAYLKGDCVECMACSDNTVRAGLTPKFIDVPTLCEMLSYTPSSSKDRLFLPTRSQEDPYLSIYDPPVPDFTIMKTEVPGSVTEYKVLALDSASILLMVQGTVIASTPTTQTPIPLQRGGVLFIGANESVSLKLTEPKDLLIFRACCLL

[4] = growth suppression of beta-catenin-knockout colon cells, dose response, cell-based, HCT116, human colon tumor (AID 1045); format: functional;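 note: HCT116 colon tumor cells with beta catenin knocked out; cells exposed to compound for 60 hours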
[5] = cytotoxicity in KRAS-transformed pancreatic duct cells, primary screen, cell-based, fluorescence, HTS (AID 431); format: functional; settings: Homo sapiens;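 note: cell line used: HPDE-C7K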
[6] = cytotoxicity in HPDE-C7 cells, cell-based, fluorescence, HTS (AID 430); format: functional; settings: Homo sapiens
Cytochrome P450 2C19 = Cytochrome P450 2C19 (Homo sapiens, UniProt P33261); assay: qHTS Assay for Inhibitors and Substrates of Cytochrome P450 2C19. [Related pubchem assays: 410 ]; format: ADME; settings: read-out: Potency
Sequence of Cytochrome P450 2C19 (P33261 whole entry): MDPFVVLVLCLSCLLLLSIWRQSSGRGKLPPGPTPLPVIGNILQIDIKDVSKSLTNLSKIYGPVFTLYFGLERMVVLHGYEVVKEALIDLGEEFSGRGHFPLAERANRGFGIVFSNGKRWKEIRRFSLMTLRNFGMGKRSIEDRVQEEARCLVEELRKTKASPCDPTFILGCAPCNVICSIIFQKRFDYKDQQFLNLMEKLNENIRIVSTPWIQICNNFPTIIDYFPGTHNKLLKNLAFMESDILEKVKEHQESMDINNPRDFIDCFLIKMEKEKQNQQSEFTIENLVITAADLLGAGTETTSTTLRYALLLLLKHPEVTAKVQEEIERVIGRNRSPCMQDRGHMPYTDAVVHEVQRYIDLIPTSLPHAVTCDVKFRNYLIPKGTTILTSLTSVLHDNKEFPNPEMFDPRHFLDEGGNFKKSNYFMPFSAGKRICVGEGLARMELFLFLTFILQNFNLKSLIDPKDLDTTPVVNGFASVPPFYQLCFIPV

[7] = control 3'UTR Renilla luciferase suppression, dose response, counter-screen for Shn3 inhibitor project, cell-based, Clone20-Shn3RL, cherry-picked (AID 624133); format: functional
[8] = Luminescence Cell-Based Dose Retest to Confirm Inhibitors of Cancer Stem Cells. [Related pubchem assays (depositor defined):AID2717, AID2721]; format: functional; settings: Homo sapiens
[9] = HepG2 cell cytotoxicity, dose response, cytotoxicity control for Shn3 inhibitor project, CellTiter-Glo, cherry-picked (AID 624134); format: functional, cell-based
[10] = Shn3 3'UTR reporter inhibitors, dose response, cell-based, Clone20 osteoblasts, firefly luciferase, cherry-picked (AID 624132); format: functional;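 note: firefly luciferase luminescence from reporter carrying the Shn3 3'UTR in osteoblasts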
[11] = Glucagon-like peptide 1 release potency, NCI-H716 cell line, dose-response, half-maximal inhibitory concentration (AID 1117344); format: functional, cell-based
[12] = half-maximal inhibitory concentration for glucagon-like peptide-1 release, STC-1 cell line, dose-response (AID 1117345); format: functional, cell-based
[13] = HepG2 cell cytotoxicity, dose response, cytotoxicity control, plate reader, dry powder samples (AID 1159569); format: functional, cell-based;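 note: inhibitor potency with signal falling toward the positive control level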
[14] = P. falciparum ATP4 D1247Y mutant growth inhibitors, dose response, NITD609-resistant line, SYBR Green, dry powder (AID 1159571); format: functional, cell-based;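 note: parasites synchronized at ring stage by sorbitol before testing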
[15] = P. falciparum Dd2 growth inhibitors, dose response, SYBR Green, cherry-picked samples (AID 1159567); format: functional, cell-based
[16] = P. falciparum 3D7-ScDHODH growth inhibitors, dose response, SYBR Green, dry powder samples (AID 1159570); format: functional, cell-based;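 note: parasite growth measured after 72 hours of compound exposure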
[17] = P. falciparum Dd2 growth inhibitors, dose response, SYBR Green, dry powder samples (AID 1159566); format: functional, cell-based;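 note: potency for growth inhibition with lower SYBR green DNA signal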
[18] = molecular target: T4, Ubiquitin-conjugating enzyme E2 N (Homo sapiens, UniProt P61088); format: functional;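 note: Dose-response confirmation in a TR-FRET assay detecting UBC13-driven polyubiquitin chain formation, inhibition measured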
T4 sequence (P61088 whole entry): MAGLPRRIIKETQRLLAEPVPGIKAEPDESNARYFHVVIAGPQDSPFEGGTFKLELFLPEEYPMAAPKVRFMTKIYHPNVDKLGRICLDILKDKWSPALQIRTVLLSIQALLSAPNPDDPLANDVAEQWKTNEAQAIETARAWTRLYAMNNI

Sequence of Cytochrome P450 2C9 (P11712 whole entry): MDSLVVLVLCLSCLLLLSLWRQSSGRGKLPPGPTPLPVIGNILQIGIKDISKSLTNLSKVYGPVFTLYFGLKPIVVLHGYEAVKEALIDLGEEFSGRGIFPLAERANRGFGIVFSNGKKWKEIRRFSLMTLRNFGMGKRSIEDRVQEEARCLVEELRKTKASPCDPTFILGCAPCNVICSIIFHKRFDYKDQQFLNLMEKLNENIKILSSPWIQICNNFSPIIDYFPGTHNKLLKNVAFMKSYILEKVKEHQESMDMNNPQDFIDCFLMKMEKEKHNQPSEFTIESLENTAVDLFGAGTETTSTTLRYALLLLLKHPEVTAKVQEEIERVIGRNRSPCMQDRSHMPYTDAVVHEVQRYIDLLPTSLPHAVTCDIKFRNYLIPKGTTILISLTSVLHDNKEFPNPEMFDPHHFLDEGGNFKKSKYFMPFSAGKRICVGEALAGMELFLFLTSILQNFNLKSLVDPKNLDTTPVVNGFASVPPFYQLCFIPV
Sequence of Estrogen receptor beta (Q92731 whole entry): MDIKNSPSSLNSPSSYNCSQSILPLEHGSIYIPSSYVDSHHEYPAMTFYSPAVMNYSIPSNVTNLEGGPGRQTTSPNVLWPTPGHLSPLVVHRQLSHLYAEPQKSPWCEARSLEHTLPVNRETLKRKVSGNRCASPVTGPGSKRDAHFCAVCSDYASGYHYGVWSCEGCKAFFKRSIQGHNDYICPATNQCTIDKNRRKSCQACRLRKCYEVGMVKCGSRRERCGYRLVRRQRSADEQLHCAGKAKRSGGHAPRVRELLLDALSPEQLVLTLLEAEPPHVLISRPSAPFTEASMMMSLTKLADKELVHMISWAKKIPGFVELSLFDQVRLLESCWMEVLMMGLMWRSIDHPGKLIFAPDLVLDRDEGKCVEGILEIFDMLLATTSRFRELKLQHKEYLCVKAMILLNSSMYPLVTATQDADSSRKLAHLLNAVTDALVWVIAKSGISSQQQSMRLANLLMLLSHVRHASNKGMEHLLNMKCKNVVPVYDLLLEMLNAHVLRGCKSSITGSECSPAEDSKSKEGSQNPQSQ

O=C(NCC1CCCO1)c1cc(-c2ccco2)nc2ccccc12 (stereo not drawn)
IC50 (Estrogen receptor beta): 26.4 µM (not active)

NCCC[C@@H](CC(=O)N[C@@H]1CCCC[C@H]1C(=O)N[C@H](CC(=O)N[C@@H](CCC(=O)O)CC(=O)O)Cc1ccccc1)NC(=O)C[C@H](CO)NC(=O)[C@@H]1CNCC[C@H]1N
AC50 (Cytochrome P450 2C9): 39.8 µM (inconclusive)

COc1ccc(C2NC(=O)NC3=C2CCc2ccccc23)cc1 (stereo not drawn)
EC50 (Protein RecA): 4.7 µM (active)
EC50 [1]: 8.31 µM (active)
AC50 [2]: > 120 µM (inactive)
IC50 [3]: 46.8 µM (active)
EC50 [4]: 9.83 µM (active)

CCCOC(=O)c1ccc(Oc2c(C)n[nH]c2-c2ccc(O)cc2O)cc1
EC50 [5]: 13.7 µM (active)
EC50 [6]: 10.3 µM (active)

CC(=O)OCC1OC(c2cc(C)cc(C)c2)C=CC1OC(C)=O (stereo not drawn)
AC50 (Cytochrome P450 2C19): 2.51 µM (inconclusive)

CC(C)C[C@H](N)c1nnc(S(=O)(=O)Cc2ccc(F)cc2)o1
AC50 [7]: 22.1 µM (active)
EC50 (Protein RecA): 25.7 µM (active)
AC50 [8]: 4.78 µM (active)
AC50 [2]: 1.4 µM (active)
AC50 [9]: 27.4 µM (active)
AC50 [10]: 9.02 µM (active)
EC50 [5]: 7.91 µM (active)
EC50 [6]: 8.98 µM (active)

CC1(C)Cc2c(C#N)c(NCc3ccco3)nc(-c3ccco3)c2CO1
EC50 [5]: > 20 µM (not active)
EC50 [6]: 10.1 µM (active)

NCCC[C@@H](CC(=O)N[C@@H]1CCNC[C@H]1C(=O)N[C@H](CC(=O)N[C@@H](CCC(=O)O)CC(=O)O)Cc1ccccc1)NC(=O)C[C@H](CO)NC(=O)[C@@H]1CNCC[C@H]1N
AC50 (Cytochrome P450 2C19): 15.8 µM (inconclusive)
AC50 (Cytochrome P450 2C9): 15.8 µM (inconclusive)

COC(=O)C1C(c2ccccc2)C2C(=O)c3c(OC)cc(OC)cc3O[C@@]12c1ccc(OC)cc1 (stereo partly drawn)
AC50 (Cytochrome P450 2C19): 0.001 µM (inconclusive)

O=C(Nc1ccc(S(=O)(=O)N2CCOCC2)cc1)c1cc(Cl)ccc1NS(=O)(=O)c1ccc(Cl)s1
IC50 [11]: > 40 µM (inactive)
IC50 [12]: > 40 µM (inactive)

CC(C)(C)[S@+]([O-])N1Cc2cc(C(=O)NCCN3CCCCC3)nc(-c3cccc(-c4cccc(C#N)c4)c3)c2[C@@H]1CCO
AC50 [13]: 91.7 µM (active)
AC50 [14]: 1.8 µM (active)
AC50 [15]: 0.606 µM (active)
AC50 [16]: 0.629 µM (active)
AC50 [17]: 0.643 µM (active)

O=C(c1cccnc1)N1CC(=O)N2[C@H](C1)[C@@H](c1ccc(-c3cccnc3)cc1)[C@@H]2CO
AC50 [13]: > 100 µM (inactive)
AC50 [14]: 0.693 µM (active)
AC50 [15]: 0.497 µM (active)
AC50 [16]: 0.938 µM (active)
AC50 [17]: 0.553 µM (active)

CN(C(=O)CN(CCO)CC(=O)N(C)C(C)(C)Cc1ccccc1)C(C)(C)Cc1ccccc1 [OXETHAZAINE]
IC50 [11]: 25.1 µM (inactive)
IC50 [12]: > 40 µM (inactive)
IC50 [18]: > 20 µM (inactive)
